Here are results for five compounds from patent US20250163038A1, “CBL-B MODULATORS AND USES THEREOF” (Nimbus Clio, Inc., priority 2021, published 2025).

One may read the IC50 as the point on the concentration scale where inhibition reaches its midpoint. As usually defined, the EC50 is the concentration that produces a half-maximal response.

The target of assay [1] is Recombinant human Cbl-b (aa 36-427) (Homo sapiens, UniProt Q13191). As to the kind of experiment: Cbl-b Biochemical Assay (TR-FRET). Conditions: read-out: TR-FRET hCbl-b IC50. For orientation: TR-FRET usually uses a lanthanide donor and a delayed reading to cut background.
The target of assay [2] is T1, Recombinant human c-Cbl (aa 47-435) (Homo sapiens, UniProt P22681).
T1 sequence (P22681 47-435): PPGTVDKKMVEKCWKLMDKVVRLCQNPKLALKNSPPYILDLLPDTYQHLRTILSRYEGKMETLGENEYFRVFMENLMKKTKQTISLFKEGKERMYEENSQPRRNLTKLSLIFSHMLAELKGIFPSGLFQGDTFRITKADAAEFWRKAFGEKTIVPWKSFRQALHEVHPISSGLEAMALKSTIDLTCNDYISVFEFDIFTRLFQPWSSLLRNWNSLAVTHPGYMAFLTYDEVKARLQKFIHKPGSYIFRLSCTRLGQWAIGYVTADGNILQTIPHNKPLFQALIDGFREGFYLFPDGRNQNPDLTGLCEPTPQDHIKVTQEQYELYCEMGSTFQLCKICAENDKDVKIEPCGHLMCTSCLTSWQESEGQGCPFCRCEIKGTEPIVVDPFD
As to the kind of experiment: c-Cbl Biochemical Assay (TR-FRET). Conditions: hc-Cbl Biochemical Assay (TR-FRET); read-out: TR-FRET hcCbl IC50.

Assay [3] concerns Jurkat (clone E6-1) cells with NFAT luciferase reporter. The assay is described as follows: Jurkat reporter assay (NFAT Luciferase). It is filed as cell-based. Conditions: Homo sapiens; Jurkat NFAT luciferase reporter cells, anti-CD3 stimulation, 6 hr; read-out: Jurkat NFAT EC50. In general terms: Reporter assays use an easily measured gene product as a stand-in for the process of interest.

Some results are limits rather than exact numbers.

Chain of Recombinant human Cbl-b (aa 36-427) (Q13191 36-427): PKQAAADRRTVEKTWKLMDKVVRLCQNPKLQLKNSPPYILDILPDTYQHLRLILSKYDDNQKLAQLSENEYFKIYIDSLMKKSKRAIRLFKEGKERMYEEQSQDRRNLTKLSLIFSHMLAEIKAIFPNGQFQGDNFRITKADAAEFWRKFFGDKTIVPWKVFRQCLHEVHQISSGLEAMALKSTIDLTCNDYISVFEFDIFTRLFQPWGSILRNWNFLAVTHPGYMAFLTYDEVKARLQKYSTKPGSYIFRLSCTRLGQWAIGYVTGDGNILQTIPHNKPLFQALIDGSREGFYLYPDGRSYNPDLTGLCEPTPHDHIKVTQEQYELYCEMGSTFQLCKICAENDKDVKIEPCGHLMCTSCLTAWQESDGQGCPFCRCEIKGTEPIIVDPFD

As for `Cn1cnnc1-c1cc(F)ccc1-c1cc(-c2nc3cc(CNCC(C)(C)O)cc(F)c3o2)cc(C2CC2)c1` [JQ-1, 1-(((2-(5-Cyclopropyl-4′-fluoro-2′-(4-methyl-4H-1,2,4-triazol-3-yl)-[1,1′-biphenyl]-3-yl)-7-fluorobenzo[d]oxazol-5-yl)methyl)amino)-2-methylpropan-2-ol], the IC50 in assay [1] and in assay [2] was below 200 nM throughout. Besides, in assay [3], the EC50 is below 200 nM.
With `CO[C@@H]1CCCN(Cc2cc(C(F)(F)F)c3oc(-c4cccc(-c5ccc(F)cc5-c5nncn5C)c4)nc3c2)C1` [JR-2, (R)-2-(4′-Fluoro-2′-(4-methyl-4H-1,2,4-triazol-3-yl)-[1,1′-biphenyl]-3-yl)-5-((3-methoxypiperidin-1-yl)methyl)-7-(trifluoromethyl)benzo[d]oxazole], the IC50 in assay [1] is below 200 nM; in assay [2] it was 200 to 1000 nM. In assay [3], the concentration giving a half-maximal response (EC50) was 200 to 1000 nM.
Consider `Cn1cnnc1-c1cc(F)ccc1-c1cc(-c2nc3cc(CNCC4(O)CCC4)cc(C(F)(F)F)c3o2)cc(C2CC2)c1` [JS-1, 1-((((2-(5-Cyclopropyl-4′-fluoro-2′-(4-methyl-4H-1,2,4-triazol-3-yl)-[1,1′-biphenyl]-3-yl)-7-(trifluoromethyl)benzo[d]oxazol-5-yl)methyl)amino)methyl)cyclobutan-1-ol], for which the IC50 in assay [1] and in assay [2] was below 200 nM throughout. Besides, the EC50 in assay [3] is below 200 nM.
As for `COCCNCc1cc(C(F)(F)F)c2oc(-c3cc(-c4ccc(F)cc4-c4nncn4C)cc(C4CC4)c3)nc2c1` [JT-1, N-((2-(5-Cyclopropyl-4′-fluoro-2′-(4-methyl-4H-1,2,4-triazol-3-yl)-[1,1′-biphenyl]-3-yl)-7-(trifluoromethyl)benzo[d]oxazol-5-yl)methyl)-2-methoxyethan-1-amine], the 50% inhibitory concentration (IC50) in assay [1] and in assay [2] was below 200 nM in each case. Also, the EC50 in assay [3] was below 200 nM.
For `Cn1cnnc1-c1cc(F)ccc1-c1cc(-c2nc3cc(CNCC4CCC4)cc(C(F)(F)F)c3o2)cc(C2CC2)c1` [JU-1, 1-Cyclobutyl-N-((2-(5-cyclopropyl-4′-fluoro-2′-(4-methyl-4H-1,2,4-triazol-3-yl)-[1,1′-biphenyl]-3-yl)-7-(trifluoromethyl)benzo[d]oxazol-5-yl)methyl)methanamine], the concentration for half-maximal inhibition (IC50) in assay [1] and in assay [2] was below 200 nM throughout. Further, the EC50 in assay [3] is below 200 nM.
